From patent US20110306606A1, “NOVEL 2,6-SUBSTITUTED-3-NITROPYRIDINE DERIVATIVE, METHOD FOR PREPARING SAME, AND PHARMACEUTICAL COMPOSITION INCLUDING SAME” (priority 2008, published 2011)

What follows are molecules tested on Osteoblasts (Calvarial cells) (assay: Cytotoxicity test (MTT)). Conditions: 1 μM compound, 72 hours, in comparison with vehicle control.
Method: For the preparation of osteoblasts (Calvarial cells), the calvaria were aseptically dissected from 1 to 2-day-old neonatal ICR mice and subjected to continuous reaction with a 0.2% collagenase solution to separate osteoblasts. The cell-suspended supernatant was centrifuged to recover osteoblasts which were grown to full confluence in an α-MEM supplemented with 10% FBS and then diluted to a desired cell density for use in the experiment.
Cytotoxicity of the compounds of the present invention was evaluated by carrying out the experiment described below.
The vehicle control group was established to contain 0.2% DMSO. 100 μL/well of the diluted drugs were dispensed into 96-well plates to which osteoblasts (calvarial cells) prepared in Experimental Example 1 were then added at a density of 1.0×10^4 cells/100 μL/well. Here, the final compound concentration in the cell culture was 1 μM, and the vehicle control group contained 0.1% DMSO. The cells were cultured in a 5% CO2 inhibitor at 37° for 72 hours. 25 μL of 3-(4,5-dimethyl-2-thiazolyl)-2,5-diphenyl-2H-tetrazolium bromide (MTT) dissolved in PBS (2 mg/mL) was added to each cell culture 4 hours before the end of culture. After completion of the reaction, the plates were centrifuged, the media were discarded, and 100 μL of formazan was added and dissolved in dimethyl sulfoxide (DMSO). Finally, the absorbance of the developed plates was measured at 540 nm. The cell viability was expressed as % concentration in comparison with the vehicle control group.
For `O=C(O)C1CCN(c2ccc(Nc3nc(NCc4ccncc4)ccc3[N+](=O)[O-])cc2F)CC1` [Compound 322, 2-{[3-fluoro-4-(4-carboxylicpiperidino)]phenylamino}-6-[(4-pyridyl)methylamino]-3-nitropyridine], the “Cell viability (%) Calvarial cell” value was 106%.
`CC1CCCCN1c1ccc(Nc2nc(N3CCOCC3)ccc2[N+](=O)[O-])cc1F` (centres unmarked) [Compound 269, 2-{[3-fluoro-4-(2-methylpiperidino)]phenylamino}-6-morpholino-3-nitropyridine] was tested, and the “Cell viability (%) Calvarial cell” value was 113%.
With `CCN(CC)c1ccc(Nc2nc(N3CCC(O)CC3)ccc2[N+](=O)[O-])cc1F` [Compound 179, 2-[(3-fluoro-4-diethylamino)phenylamino]-6-(4-hydroxypiperidino)-3-nitropyridine] the “Cell viability (%) Calvarial cell” value was 104%.
`CC(C)(C)Nc1ccc([N+](=O)[O-])c(Nc2ccc(N3CCC(C(N)=O)CC3)c(F)c2)n1` [Compound 292, 2-{[3-fluoro-4-(4-carbamoylpiperidino)]phenylamino}-6-(t-butylamino)-3-nitropyridine] was tested, and the “Cell viability (%) Calvarial cell” value was 102%.
In the case of `CN(CC1OCCO1)c1ccc([N+](=O)[O-])c(Nc2ccc(F)c(F)c2)n1` [Compound 127, 2-[(3,4-difluoro)phenylamino]-6-[(N-[1,3]-dioxolan-2-ylmethyl)-methylamino]-3-nitropyridine], the “Cell viability (%) Calvarial cell” value is reported as 99%.
`O=C(O)C1CCN(c2ccc(Nc3nc(NCCN4CCOCC4)ccc3[N+](=O)[O-])cc2F)CC1` [Compound 324, 2-{[3-fluoro-4-(4-carboxylicpiperidino)]phenylamino}-6-[2-(morpholin-1-yl)ethylamino]-3-nitropyridine] was tested, and the “Cell viability (%) Calvarial cell” value was 82%.
For `O=[N+]([O-])c1ccc(NC2CC2)nc1Nc1ccc(N2CCCC(CO)C2)c(F)c1` (centres unmarked) [Compound 288, 2-{[3-fluoro-4-(3-hydroxymethylpiperidino)]phenylamino}-6-(cyclopropylamino)-3-nitropyridine], the “Cell viability (%) Calvarial cell” value was 103%.
With `CC(C)CNc1ccc([N+](=O)[O-])c(Nc2ccc(N3CCC(C(=O)O)CC3)c(F)c2)n1` [Compound 318, 2-{[3-fluoro-4-(4-carboxylicpiperidino)]phenylamino}-6-(isobutylamino)-3-nitropyridine] the “Cell viability (%) Calvarial cell” value was 103%.
In the case of `CCN(CC)c1ccc(Nc2nc(NC(C)C)ccc2[N+](=O)[O-])cc1F` [Compound 176, 2-[(3-fluoro-4-diethylamino)phenylamino]-6-(isopropylamino)-3-nitropyridine], the “Cell viability (%) Calvarial cell” value is reported as 109%.
For `CC(C)c1nccn1-c1ccc([N+](=O)[O-])c(Nc2ccc(N3CCOCC3)c(F)c2)n1` [Compound 196, 2-[(3-fluoro-4-morpholino)phenylamino]-6-[(2-isopropyl)imidazol-1-yl]-3-nitropyridine], the “Cell viability (%) Calvarial cell” value was 100%.
In the case of `CC1CCCCN1c1ccc(Nc2nc(NCCCN3CCOCC3)ccc2[N+](=O)[O-])cc1F` (centres unmarked) [Compound 274, 2-{[3-fluoro-4-(2-methylpiperidino)]phenylamino}-6-[(3-morpholin-1-yl)propylamino]-3-nitropyridine], the “Cell viability (%) Calvarial cell” value is reported as 102%.
In the case of `CC(C)(C)Nc1ccc([N+](=O)[O-])c(Nc2ccc(N3CCC(O)CC3)c(F)c2)n1` [Compound 243, 2-{[3-fluoro-4-(4-hydroxypiperidino)]phenylamino}-6-(t-butylamino)-3-nitropyridine], the “Cell viability (%) Calvarial cell” value is reported as 97%.
`CC1CCCCN1c1ccc(Nc2nc(N3CCN(C)CC3)ccc2[N+](=O)[O-])cc1F` (centres unmarked) [Compound 268, 2-{[3-fluoro-4-(2-methylpiperidino)]phenylamino}-6-(4-methylpiperazin-1-yl)-3-nitropyridine] was tested, and the “Cell viability (%) Calvarial cell” value was 104%.
For `CC1CCCCN1c1ccc(Nc2nc(N3CCC(N)CC3)ccc2[N+](=O)[O-])cc1F` (centres unmarked) [Compound 270, 2-{[3-fluoro-4-(2-methylpiperidino)]phenylamino}-6-(4-aminopiperidino)-3-nitropyridine], the “Cell viability (%) Calvarial cell” value was 95%.
